# Assay results: article PMC3713097 (Chemical research in toxicology, 2013)
# Read-outs that look alike come from different tables or passages of the source.
# Columns and labels:
# P450 2A13 = biological target: T1, P450 2A13 (Homo sapiens, UniProt Q16696); assay: Spectral binding titration with purified P450 2A13
# T1 sequence (Q16696 with tags, fused parts or gaps limits assumed): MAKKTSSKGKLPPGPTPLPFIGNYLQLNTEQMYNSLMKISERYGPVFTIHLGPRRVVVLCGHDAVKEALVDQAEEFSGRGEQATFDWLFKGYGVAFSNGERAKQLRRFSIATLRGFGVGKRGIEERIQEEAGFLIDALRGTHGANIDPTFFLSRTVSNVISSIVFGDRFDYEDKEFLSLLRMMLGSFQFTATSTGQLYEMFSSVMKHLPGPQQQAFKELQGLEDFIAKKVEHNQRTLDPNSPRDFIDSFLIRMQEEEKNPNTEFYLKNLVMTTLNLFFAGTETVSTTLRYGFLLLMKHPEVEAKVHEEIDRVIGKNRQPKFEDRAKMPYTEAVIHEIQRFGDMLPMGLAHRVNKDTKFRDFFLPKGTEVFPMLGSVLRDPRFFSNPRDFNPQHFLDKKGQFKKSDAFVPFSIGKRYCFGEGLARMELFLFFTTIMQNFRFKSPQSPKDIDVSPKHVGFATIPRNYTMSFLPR
# P450 1B1 [1] = biological target: T2, P450 1B1 (Homo sapiens, UniProt Q16678, L432V); assay: Spectral binding titration with purified P450 1B1
# T2 sequence (Q16678 1-543 L432V): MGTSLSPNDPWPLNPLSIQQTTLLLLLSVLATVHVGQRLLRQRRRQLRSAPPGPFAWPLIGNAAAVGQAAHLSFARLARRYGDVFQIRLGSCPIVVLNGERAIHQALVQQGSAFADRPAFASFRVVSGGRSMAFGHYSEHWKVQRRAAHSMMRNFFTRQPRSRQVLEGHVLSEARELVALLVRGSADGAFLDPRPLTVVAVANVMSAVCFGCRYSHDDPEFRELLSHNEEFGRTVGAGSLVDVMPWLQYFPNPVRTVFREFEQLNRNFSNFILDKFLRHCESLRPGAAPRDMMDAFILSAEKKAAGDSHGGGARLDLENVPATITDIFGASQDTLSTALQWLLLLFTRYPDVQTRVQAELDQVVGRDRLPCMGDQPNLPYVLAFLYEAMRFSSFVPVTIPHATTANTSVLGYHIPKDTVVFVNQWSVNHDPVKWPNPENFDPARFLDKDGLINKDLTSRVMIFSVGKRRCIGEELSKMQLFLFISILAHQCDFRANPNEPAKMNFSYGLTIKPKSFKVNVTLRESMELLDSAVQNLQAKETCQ
# P450 2A6 [2] = biological target: T3, P450 2A6 (Homo sapiens, UniProt P11509); conditions: pH 7.4
# T3 sequence (P11509 1-494): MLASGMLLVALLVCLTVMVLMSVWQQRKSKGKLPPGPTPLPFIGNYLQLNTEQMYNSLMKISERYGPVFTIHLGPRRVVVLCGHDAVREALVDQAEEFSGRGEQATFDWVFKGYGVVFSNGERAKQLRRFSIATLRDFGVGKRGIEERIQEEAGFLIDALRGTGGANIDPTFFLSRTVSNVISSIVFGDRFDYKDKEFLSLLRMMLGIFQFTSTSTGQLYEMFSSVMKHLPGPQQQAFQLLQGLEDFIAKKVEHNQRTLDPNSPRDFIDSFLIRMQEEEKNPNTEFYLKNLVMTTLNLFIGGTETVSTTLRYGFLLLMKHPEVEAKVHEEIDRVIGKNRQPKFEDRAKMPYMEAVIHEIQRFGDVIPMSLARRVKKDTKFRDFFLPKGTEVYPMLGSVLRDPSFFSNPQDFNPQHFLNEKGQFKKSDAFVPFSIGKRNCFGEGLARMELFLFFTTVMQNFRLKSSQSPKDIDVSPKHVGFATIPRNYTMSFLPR
# P450 1B1 [3] = biological target: T2, P450 1B1; conditions: 10 nM P450, 2.5 µM procarcinogen, means ± range of duplicate experiments
# human P450 2A13 [4] = biological target: T4, human P450 2A13 (Homo sapiens, UniProt Q16696); conditions: 10 nM P450, 2.5 µM procarcinogen, means ± range of duplicate experiments
# T4 sequence (Q16696 31-494 limits assumed): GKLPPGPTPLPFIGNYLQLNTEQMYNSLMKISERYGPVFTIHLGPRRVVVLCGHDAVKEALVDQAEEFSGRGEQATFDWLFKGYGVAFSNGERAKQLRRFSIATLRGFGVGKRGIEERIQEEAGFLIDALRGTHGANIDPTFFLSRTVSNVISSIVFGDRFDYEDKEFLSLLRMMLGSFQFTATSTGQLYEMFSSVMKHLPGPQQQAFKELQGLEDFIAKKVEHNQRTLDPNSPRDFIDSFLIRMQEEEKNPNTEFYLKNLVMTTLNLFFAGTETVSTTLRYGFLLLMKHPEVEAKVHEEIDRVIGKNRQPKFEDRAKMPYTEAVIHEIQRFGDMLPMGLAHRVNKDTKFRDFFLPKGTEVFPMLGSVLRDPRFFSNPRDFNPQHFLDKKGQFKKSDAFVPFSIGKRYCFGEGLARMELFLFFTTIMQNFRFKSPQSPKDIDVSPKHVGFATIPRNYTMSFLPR
# human P450 2A13 [5] = biological target: T4, human P450 2A13; conditions: pH 7.4
# P450 1B1 [6] = biological target: T2, P450 1B1; conditions: pH 7.4
# P450 2A6 [7] = biological target: T3, P450 2A6; assay: Spectral binding titration with purified P450 2A6
smiles,measurement,setting,value
"OC1C=Cc2c(cc3ccc4cccc5ccc2c3c45)C1O (racemic) [( ± )B[a]P-7,8-diol, 7,8-dihydroxy-7,8-dihydrobenzo[a]pyrene]",Kd,P450 2A13,> 20 µM
same,Kd,P450 1B1 [1],6.8 ± 1.2 µM
same,ΔAmax/ Ks,"P450 1B1 [1]; P450 1B1, Reverse Type I spectra",0.0035
same,ΔAmax,"P450 1B1 [1]; P450 1B1, Reverse Type I spectra, ± SE",0.024 ± 0.002
same,activation of procarcinogens umu gene expression,P450 2A6 [2],45 ± 11 units/min/nmol P450
same,activation of procarcinogens umu gene expression,P450 1B1 [3],2600 ± 110 units/min/nmol P450
same,activation of procarcinogens umu gene expression,human P450 2A13 [4],136 ± 22 units/min/nmol P450
"Cc1c2ccccc2c(C)c2c1ccc1ccccc12 [7,12-DMBA, 7,12-dimethylbenz[a]anthracene]",Kd,P450 2A13,> 20 µM
same,Kd,P450 1B1 [1],8.8 ± 1.3 µM
same,ΔAmax,P450 1B1 [1],0.039 ± 0.002
same,ΔAmax/ Ks,P450 1B1 [1],0.0044
same,activation of procarcinogens umu gene expression,human P450 2A13 [5],<10 units/min/nmol P450
same,activation of procarcinogens umu gene expression,P450 2A6 [2],<10 units/min/nmol P450
same,activation of procarcinogens umu gene expression,P450 1B1 [6],190 ± 21 units/min/nmol P450
"Cc1c2ccccc2c(C)c2c3c(ccc12)C(O)C(O)C=C3 (stereo not drawn) [7,12-DMBA-3,4-diol, 3,4-dihydroxy-3,4-dihydro-7,12-dimethylbenz[a]anthracene]",Kd,"P450 2A13; human, pH 7.4",> 20 µM
same,Kd,"P450 1B1 [1]; human, pH 7.4",> 20 µM
same,activation of procarcinogens umu gene expression,human P450 2A13 [5]; 2.5 µM,280 ± 33 units/min/nmol P450
same,activation of procarcinogens umu gene expression,P450 2A6 [2]; 2.5 µM,55 ± 13 units/min/nmol P450
same,activation of procarcinogens umu gene expression,P450 1B1 [6]; 2.5 µM,2700 ± 110 units/min/nmol P450
"OC1C=Cc2c(ccc3cc4ccccc4cc23)C1O (stereo not drawn) [B[a]A-trans-3,4-diol, 3,4-dihydroxy-3,4-dihydrobenz[a]anthracene]",Kd,"P450 1B1 [1]; human, pH 7.4",> 20 µM
same,activation of procarcinogens umu gene expression,human P450 2A13 [5]; 2.5 µM,<10 units/min/nmol P450
same,activation of procarcinogens umu gene expression,P450 2A6 [2]; 2.5 µM,<10 units/min/nmol P450
same,activation of procarcinogens umu gene expression,P450 1B1 [6]; 2.5 µM,<10 units/min/nmol P450
"Cc1cnc2ccc3c(nc(N)n3C)c2n1 [MeIQx, 2-amino-3,8-dimethylimiidazo[4,5-f]quinoxaline]",activation of procarcinogens umu gene expression,human P450 2A13 [5],110 ± 15 units/min/nmol P450
same,activation of procarcinogens umu gene expression,P450 2A6 [2],45 ± 15 units/min/nmol P450
same,activation of procarcinogens umu gene expression,P450 1B1 [6],87 ± 11 units/min/nmol P450
"Cc1c(N)nc(C)c2c1[nH]c1ccccc12 [Trp-P-1, 3-amino-1,4-dimethyl-5H-pyrido[4,3-b]indole]",Kd,P450 1B1 [1],> 20 µM
same,activation of procarcinogens umu gene expression,human P450 2A13 [5],40 ± 9 units/min/nmol P450
same,activation of procarcinogens umu gene expression,P450 2A6 [2],61 ± 11 units/min/nmol P450
same,activation of procarcinogens umu gene expression,P450 1B1 [6],910 ± 90 units/min/nmol P450
C1=Cc2cccc3cccc1c23 [acenaphthylene],Kd,P450 2A13,0.61 ± 0.19 µM
same,ΔAmax,P450 2A13,0.050 ± 0.004
same,ΔAmax/ Ks,P450 2A13,0.082
same,Kd,P450 2A6 [7],4.4 ± 0.52 µM
same,spectral interaction with P450 2A6 (Type I binding spectra),P450 2A6 [7],interacted
same,ΔAmax,P450 2A6 [7],0.076 ± 0.52
same,ΔAmax/ Ks,P450 2A6 [7],0.017
same,Kd,P450 1B1 [1],> 20 µM
same,activation of procarcinogens umu gene expression,human P450 2A13 [5]; 2.5 µM,<10 units/min/nmol P450
same,activation of procarcinogens umu gene expression,P450 2A6 [2]; 2.5 µM,<10 units/min/nmol P450
same,activation of procarcinogens umu gene expression,P450 1B1 [6]; 2.5 µM,<10 units/min/nmol P450
c1ccc2c(c1)-c1cccc3cccc-2c13 [fluoranthene],Kd,P450 2A13,2.4 ± 1.5 µM
same,ΔAmax,P450 2A13,0.044 ± 0.011
same,ΔAmax/ Ks,P450 2A13,0.018
same,Kd,P450 2A6 [7],> 20 µM
same,Kd,P450 1B1 [1],1.6 ± 0.32 µM
same,ΔAmax,P450 1B1 [1],0.066 ± 0.003
same,ΔAmax/ Ks,P450 1B1 [1],0.042
same,activation of procarcinogens umu gene expression,human P450 2A13 [5],<10 units/min/nmol P450
same,activation of procarcinogens umu gene expression,P450 2A6 [2],<10 units/min/nmol P450
same,activation of procarcinogens umu gene expression,P450 1B1 [6],<10 units/min/nmol P450
